Measurements published in patent publication US20020182112A1, “In vivo method for measuring binding of chemical actives to skin or specific constituents of skin” (Unilever Home & Personal Care USA, Division of Conopco, Inc., priority 2001, published 2002).

Biological target: Bovine Serum Albumim (BSA) (Bos taurus, UniProt P02769)
Assay: Pyranine fluorescence in BSA solution: replacement of pyranine from BSA binding sites by added surfactant
Conditions: for ratio of the fluorescence intensities from the deprotonated and protonated state (509 nm / 426 nm): pyranine 1.0×10^−8 M in 50 mM Hepes buffer pH 6.7, BSA 2.5 mg/ml, surfactant added at weight fraction 4×10^−5; for ratio of the fluorescence intensities 509 nm / 426 nm: no surfactant
Protocol: Fluorescence spectra of pyranine in solutions and on skin were obtained using a Perkin Elmer LS50B fluorometer. In the case of spectra taken on skin, the fiber optic probe accessory was used.
All spectra were taken at pyranine concentrations of 1.0×10^−8 M in 50 mM Hepes buffer (aqueous buffer solution with pH 6.7). Bovine Serum Albumim (BSA) concentrations were 2.5 mg/ml. Surfactant was added at weight fractions of 4×10^−5.
In order to test the applicability of pyranine fluorescence to monitor the binding of surfactants to proteins, applicants studied the effect of added surfactant on the fluorescence spectrum of aqueous solutions of pyranine and BSA. […] This effect can be explained by the replacement of pyranine molecules bound to BSA by SDS molecules leading to an increased concentration of pyranine in free solution and therefore a relative increase in intensity of the fluorescence from the deprotonated state. The ratio of the fluorescence intensities from the deprotonated and protonated site is a measure of the ability of a surfactant to replace pyranine from BSA binding sites.

Chain of Bovine Serum Albumim (BSA) (P02769 25-607): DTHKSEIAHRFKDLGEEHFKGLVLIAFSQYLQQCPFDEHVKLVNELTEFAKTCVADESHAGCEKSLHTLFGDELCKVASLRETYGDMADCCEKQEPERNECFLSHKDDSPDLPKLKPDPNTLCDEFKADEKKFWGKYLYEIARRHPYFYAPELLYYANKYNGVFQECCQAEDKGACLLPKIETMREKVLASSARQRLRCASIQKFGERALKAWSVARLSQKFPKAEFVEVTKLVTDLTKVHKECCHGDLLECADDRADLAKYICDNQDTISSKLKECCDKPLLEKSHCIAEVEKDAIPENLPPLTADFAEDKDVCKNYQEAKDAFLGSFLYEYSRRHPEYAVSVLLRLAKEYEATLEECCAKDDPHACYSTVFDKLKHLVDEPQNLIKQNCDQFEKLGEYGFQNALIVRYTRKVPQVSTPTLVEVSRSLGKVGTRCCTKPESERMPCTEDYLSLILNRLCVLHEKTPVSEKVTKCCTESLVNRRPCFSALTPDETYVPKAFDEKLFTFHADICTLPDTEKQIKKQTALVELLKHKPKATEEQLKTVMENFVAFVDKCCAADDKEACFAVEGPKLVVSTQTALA

Compound | ratio of the fluorescence intensities from the deprotonated and protonated state (509 nm / 426 nm) | also measured
CCCCCCCCCCCCOS(=O)(=O)[O-].[Na+] [SDS, sodium dodecyl sulphate] | 2.23 | effect of added surfactant on the fluorescence spectrum of pyranine and BSA (FIG. 2) (50 mM Hepes buffer, 2.5 mg/ml BSA, 4×10^−5 weight fraction SDS): significant increase of the relative intensity of the fluorescence from the deprotonated state
Cocamilopropyl Betaine | 1.56 | 
O=S(=O)(O)c1cc(O)c2ccc3c(S(=O)(=O)O)cc(S(=O)(=O)O)c4ccc1c2c34 [Pyranine, 8-hydroxyl-1 ,3,6-pyrene-trisulfonic acid] |  | ratio of the fluorescence intensities 509 nm / 426 nm (pyranine 1.0×10^−8 M in 50 mM Hepes buffer pH 6.7, no BSA): 8.03; ratio of the fluorescence intensities 509 nm / 426 nm (pyranine 1.0×10^−8 M in 50 mM Hepes buffer pH 6.7 with BSA 2.5 mg/ml): 1.17
alkylpolyglycoside [APG] | 1.34 | 

Continued, in another order:

ratio of the fluorescence intensities from the deprotonated and protonated state (509 nm / 426 nm) | Compound | also measured
2.12 | Sodiumlauryl Ether Sulfate | 
2.13 | CCCCCCCCCCCC(=O)[O-].[Na+] [Sodium Laurate] | 
